Legend:
[1] = tested on: BAD_0569/BAD_0568-CcaR TCS; details: E. coli expressing BAD_0569 and BAD_0568-CcaR, sfGFP from PcpcG2; panel of over 40 gut chemicals
From the text: Briefly, the wild type BAD_0569 SK of Bifidobacterium adolescent was expressed in E. coli. A modified cognate response regulator BAD_0568 was simultaneously expressed in E. coli, wherein the native DBD from the Bifidobacterium adolescentis RR was replaced with that of the DBD from the well-characterized OmpR-PhoB family RR CcaR. When phosphorylated, native CcaR activates transcription from PcpcG2, or its derivatives. A superfolder GFP reporter gene (a.k.a. GFP) was expressed from PcpcG2 in the same E. coli. Anydrotetracyline (aTc) induces expression of the BAD_0568-CcaR hybrid, which activates PcpcG2 transcription and thus GFP expression.
We then tested E. coli expressing the hybrid BAD_0569/8 TCS (i.e. BAD_0569 and BAD_0568-CcaR with sfGFP expressed from PcpcG2) in the presence of over 40 chemicals previously found to be enriched in the large intestines of germ-free mice made to carry gut bacteria of obese humans, but not found to be enriched in those mice carrying the gut bacteria of their lean twins.

NarL / PdcuS promoter = details: PdcuS promoter repressed by phosphorylated NarL, sfGFP; cited from earlier work

Row | SMILES | response of rewired BAD_0569/8 TCS (sfGFP reporter) to the chemical [1] | sensitivity of the sensor (NarL / PdcuS promoter)
1 | CSCC[C@H](N)C(=O)O [methionine] | largest response | –
2 | O=[N+]([O-])O [nitrate] | – | The sensitivity of the sensor is in the sub-mM to mM range for nitrate.
